In a melting point compilation (Tetko et al.; mined from patent text by program, amines drawn as free bases though some values may be those of a salt) one finds melting point data, which are given here for 86 compounds.

As a reminder, the melting point is the temperature, or range, at which the solid turns liquid.

Consider `OC1(C(F)(F)F)CC(c2ccc(Cl)cc2)=NN1Cc1cccnc1` (stereo unspecified), for which the melting point was in the range of 158 to 160 °C. Compound `CCOC(=O)c1ccc(SC)c(Cl)c1N(CC)S(C)(=O)=O` had a melting point of 70.5 to 73.5 °C. Then `Nc1ncc(CCCCc2ccc(Cl)cc2)c(N)n1`, with 159 to 162 °C; and `O=C(O)CNC(=O)c1c(Cl)cc(N2C(=O)N3CCCC3(Cc3ccc(Br)cc3)C2=O)cc1Cl` (stereo unspecified), with 157 to 158 °C.

In turn, `O=C1CCN=C(c2ccccc2F)c2cc(Cl)ccc21` displayed a melting point of 107 to 109 °C.

Compound `NC(CCN1CCC(O)(Cc2ccccc2)CC1)C(=O)c1ccccc1` (stereo unspecified) registered a melting point of 123 to 124 °C.

In turn, `O=C(CCO)Nc1cccc(S)c1` yielded a melting point of 103 to 104 °C. Then `CC(c1ccccc1)c1n[nH]c2c1c(=O)n(-c1cccc(C(F)(F)F)c1)c1ncccc21` (stereo unspecified), with 235 to 237 °C; and `CCCCC#CC#CCOc1ccc(C(=O)O)cc1`, with 165 to 166 °C.

`O=C(NCC12CC3CC(CC(C3)C1)C2)c1cc(CCCNCCCO)ncc1Cl` returned a melting point of 84 to 85 °C.

The compound `CC(C)(C)OC(=O)N1CCCC(O)(C#Cc2cccc(Cl)c2)C1` (stereo unspecified) yielded a melting point of 128 to 129 °C.

`CC1(C)CC(=O)Oc2cc(O)ccc21` displayed a melting point of 84 to 85 °C. Under `CCc1cc(-c2nc(C)c(-c3ccnc(Nc4ccc(S(=O)(=O)NCCO)cc4)n3)s2)ccn1` stands 233 to 234 °C.

On to `CCCn1cnc2c(=O)[nH]c(N)nc21`, for which the melting point is over 300 °C. Then `Cc1cc(Cl)cc2c(=O)oc(-c3cc(Br)nn3-c3ncccc3Cl)nc12`, with 203 to 205 °C; and `CC(C)=CCOc1ccc2c(=O)c(C)c(-c3ccccc3)oc2c1C(=O)C=Cc1ccc(Cl)cc1`, with 130 to 133 °C; and `COc1ccc(S(=O)(=O)CC(O)(CS(=O)(=O)c2ccc(OC)cc2)C(=O)NO)cc1`, with 75 to 80 °C. Under `O=C(O)C(c1ccccc1)C1CCN(c2ccc([N+](=O)[O-])cc2)CC1` (stereo unspecified) stands 216 °C. Under `CCCC(=O)N(CC)c1cccc(-c2ccc3nnc(C)n3n2)c1` stands 127 to 129 °C; under `Nc1cccc2c1CN(c1nc3c(cc1F)c(=O)c(C(=O)O)cn3C1CC1)C2`, over 300 °C. `CC(=O)N(C)C(Cc1ccccc1N)c1ccc(C)s1` (stereo unspecified) showed a melting point of 144 to 145 °C. Under `O=c1[nH]nnn1-c1ccc([N+](=O)[O-])cc1F` stands 148 to 150 °C; under `CC(C)(C)CC(C)(C)c1cc(-n2nc3ccc(S(=O)(=O)c4ccccc4)cc3n2)c(O)c(C(C)(C)c2ccccc2)c1`, 170 to 171 °C. Under `CNC(=O)N(O)C(C)C#Cc1cccc(Oc2ccccn2)c1` (stereo unspecified) stands 147 to 149 °C; under `CC(C)(C)OC(=O)NC1Cc2ccccc2C1Oc1ccccc1Cc1ccccc1` (stereo unspecified), 113 to 114 °C. Then `O=C(O)c1cccc(=O)n1OCc1ccccc1`, with 176 to 177 °C; and `CCc1cc2c(Nc3nnc(C)s3)ncnc2s1`, with 277 to 280 °C; and `O=C1c2ccccc2C(O)N1c1cccc(C(F)(F)F)c1` (stereo unspecified), with 202 °C. `Cc1oc(-c2ccco2)nc1COc1ccc(COc2nn(-c3ccccc3)cc2C=O)cn1` yielded a melting point of 122 to 123 °C. Then `CC(C)(C)OC(=O)C[C@@H]1C[C@@H](COc2ccc(-c3ccc(C(=N)NC(=O)OCc4ccccc4)cc3)cc2)NC1=O`, with 136 to 140 °C; and `O=[N+]([O-])c1cccc2cc(-c3nccs3)[nH]c12`, with 130 to 131 °C; and `O=c1ccc2c([nH]1)C(Nc1ccccc1)CCC2` (stereo unspecified), with 225 °C. `COc1cc(-c2c(Cl)c(CN3C(=O)CCC3=O)nc3sc4c(c23)CCN(C(C)=O)C4)ccc1O`: the melting point was 273 to 275 °C. Under `COC(=O)c1nc(-c2ccc(Cl)cc2F)nc(N)c1Cl` stands 194 to 196 °C; under `COc1ccccc1Oc1c(Cl)nc(N2CCOCC2)nc1OCCOCc1ccccc1`, 133 to 134 °C; under `Cc1[nH]c2ccccc2c1C(=O)C(=O)N1CCC(Oc2ccc(F)cc2)CC1`, 213 to 214 °C.

Consider `COc1ccc(-c2nc(Oc3ccc(C)cc3)ncc2C(=O)N2CCOCC2)cc1OC`, for which the melting point was determined as 152 °C. Under `COC(=O)c1c(C)nc2c(c1N)c1ccccc1n2C` stands 98 to 100 °C; under `Cc1cc(C(=O)NCC(N)=O)cc(-c2cccc3cc(Cc4cccc(C(F)(F)F)c4)sc23)n1`, 183 to 184 °C. Then `O=C(O)c1ccccc1Sc1ccc(Cl)cc1`, with 240 °C. Compound `CC(C)C1NC(=O)CN1C(=O)CNC(=O)OCc1ccccc1` (stereo unspecified) came in with a melting point of 137 to 139 °C. Under `CCOC(=O)c1cc(=O)c2c(CC)cc(Cl)cc2[nH]1` stands 182 to 183 °C; under `O=c1c(NCCCO)c(Cl)cnn1COCc1ccccc1`, 54 to 56 °C; under `CC(C)(C)c1cc(C=O)c(O)c(S(C)(=O)=O)c1`, 134 to 136 °C.

For `Cn1c(=O)c(-c2nnn(Cc3cccc(OCc4ccc5ccccc5n4)c3)n2)cc2cc(OCCCN3CCN(Cc4ccc5ccccc5n4)CC3)ccc21`, the melting point was 174 to 178 °C.

`COC1=C(OC)C(=O)C2=C(CCC(CCOc3ccc4ccccc4n3)CC2)C1=O` registered a melting point of 134 to 136 °C. Then `CCOC(=O)C1=C(C)NC(N)=C(C(=O)OCC)C1c1ccccc1C#N` (stereo unspecified), with 208 °C; and `CN(Cc1cc(C(F)(F)F)cc(C(F)(F)F)c1)C(=O)c1c(-c2ccc(C(=O)O)cc2)c2cccnc2c(=O)n1C`, with 301 to 302 °C; and `CS(=O)c1cc(OCC(O)CNC2CCN(c3ccc(NS(=O)(=O)c4ccc(Br)cc4)cn3)CC2)ccc1O` (stereo unspecified), with 147 °C. With `CCCCCCCCCCCCCCCCCCOc1ccc(NC(=O)c2ccc(O)cc2)cc1`, the melting point was found to be 170 °C. Under `COc1ccc(N(C(C)C)S(=O)(=O)c2ccc(C)cc2)c([N+](=O)[O-])c1` stands 148 to 150 °C; under `Cc1cn(-c2ccc(NC(=O)c3ccc(Cl)c(C#Cc4ccc(NC(C)C)nn4)c3)cc2C(F)(F)F)cn1`, 133 to 135 °C.

`C#CCNC(=O)N1CC(c2ccc(C(C)(C)C)cc2)C1` gave a melting point of 141 °C. With `CC(=O)O[C@@H](c1cnnn1-c1ccccc1)[C@@H](CCN1CCC(N2CCCCC2=O)CC1)c1ccc(Cl)c(Cl)c1` (racemic), the melting point fell in the range of 65 to 67 °C. Under `CNC(=O)c1c(N)cc(Cl)cc1Cl` stands 159 to 162 °C. The compound `Clc1ccc2nc(-c3ccccn3)nn2c1` gave a melting point of 118 to 119 °C. In turn, `N#Cc1ccccc1Cc1c(-c2ccc(OC(F)F)c(OC3CC3)c2)[nH]c2cn[nH]c(=O)c12` showed a melting point of over 300 °C.

Compound `O=Cc1ccc(OC[C@H]2CCCN2c2ncnc3[nH]cnc23)c2ccccc12` gave a melting point of 167 to 168 °C. On to `CN1C2CCC1C1CN(C(=O)N3c4ccccc4C(=O)Nc4cccnc43)CC12` (stereo unspecified), for which the melting point lay in the range of 218 to 220 °C. Under `CCN1c2ncc(CCc3ccccc3)cc2C(=O)N(C)c2c1ncc(C)c2C` stands 187 to 188 °C. As to `COc1cc(CCNC=O)cc2c1OCO2`, the melting point fell in the range of 108 to 110 °C. Compound `Cc1ccc(C(O)(c2ccc(C)cc2)C2CCN(Cc3ccccc3)CC2)cc1` registered a melting point of 115 to 117 °C. Then `Cc1ccc(NC(=O)c2cc(Br)c(Br)s2)cc1C`, with 216 to 217 °C. Under `Cc1nccn1-c1cccc(C2=Nc3ccc(-c4ccc(F)cc4)cc3NC(=O)C2)c1` stands 227 °C; under `CC(=O)N(C)c1cccc(S(=O)(=O)c2ccc([N+](=O)[O-])cc2)c1`, 194 to 195 °C; under `CC(Cl)(Cl)C(Cl)(Cl)c1cccc([N+](=O)[O-])c1`, 75.5 to 77 °C. Under `CCCCC(=O)/C=C/c1ccccc1` stands 32 to 32.5 °C; under `CCSC(=S)N1C(CO)Cc2c([nH]c3ccccc23)C1CC` (stereo unspecified), 82 to 84 °C; under `Brc1ccc(C2=CCCC2)cc1`, 94 to 95 °C. `CCCOc1ccc(S(=O)(=O)C(C)C)cc1-c1nc2c(CC)nn(C[C@@H]3CCCN3C(=O)OC(C)(C)C)c2c(=O)[nH]1`: the melting point fell in the range of 141 to 143 °C. Then `CCCCCCCCCCC#Cc1c2ccccc2c2ccc3c(C#CCCCCCCCCCC)c4ccccc4c4ccc1c2c34`, with 129 to 130 °C; and `CCc1nc2c(Cl)ncnc2n1Cc1ccc(OC)cc1`, with 101 to 103 °C. Under `CCOC(=O)c1ccc(NCCCOc2ccccc2)cc1` stands 73 to 74 °C; under `CCC[C@H]1CC[C@H](c2ccc(F)c(F)c2)CC1`, -15.4 °C. Then `Cc1noc2cc(F)c(-n3c(=O)cc(C(F)(F)F)[nH]c3=O)cc12`, with 235 to 237 °C.

Consider `CS(=O)(=O)c1ccc(-c2nc(C(F)(F)F)[nH]c2-c2ccccc2)cc1`, for which the melting point fell in the range of 228 to 230 °C. Compound `CC(C)CCCC(C)C1CCC2C3CCC4CC(OC=O)CCC4(C)C3CCC12C` (stereo unspecified) displayed a melting point of 107 to 108 °C. Then `CC1(C(=O)O)CCC2(C)CCC3(C)C(=CCC4C5(C)CCC(O)C(C)(C)C5CCC43C)C2C1` (stereo unspecified), with 329 to 331 °C; and `COc1ccc(-c2nn(Cc3ccccc3)c(=O)cc2-c2ccc(OC)c(F)c2)cc1`, with 110 to 112 °C. Compound `CC1(Oc2ccccc2)CN(Cc2ccc(COc3cccc4c3CN(C3CCC(=O)NC3=O)C4=O)cc2)C1` (stereo unspecified) had a melting point of 127 to 129 °C. In turn, `CCN1CCC(NC(=O)c2ccc(NC(C)=O)cc2)N1CC` (stereo unspecified) had a melting point of 178 to 180 °C. Compound `N#CC(Cc1ccc(Cl)cc1)c1c(Cl)cc(N2N=CCNC2=O)cc1Cl` (stereo unspecified) returned a melting point of 213 °C.

As for `CN1CCN(c2c(F)cc3c(=O)c(C(=O)O)cn(C4COC4)c3c2Cl)CC1`, the melting point is 211 to 212 °C.

For `CCCCCCCCCCCc1ncc(C(=O)O)s1`, the melting point worked out at 93 °C. Then `O=C(NC(CO)C(=O)c1ccc(Cl)cc1)C1CCN(C(=O)OCc2ccccc2)CC1` (stereo unspecified), with 116 to 118 °C; and `BrC=C1c2ccccc2CCc2ccccc21`, with 73.6 °C.
